Source: US20200078468A1, “NEUROTENSIN RECEPTOR BINDING CONJUGATES AND FORMULATIONS THEREOF” (priority 2016, published 2020)
Read-outs that look alike come from different tables or passages of the source. Numbered stars: 1 amine (or outer) side, 2 acyl side, 3 side chain; on linkers, the order of the positions; unused ones are H or OH. Bridge positions count the residues as written; N and C are the ends. Square brackets hold non-standard residues; d marks the D form. Peptide text beside a SMILES is read from it. I, II: the chains in the order shown. * marks the point of attachment. X3 = COc1cccc2c1C(=O)c1c(O)c3c(c(O)c1C2=O)C[C@@](O)(C(=O)CO)C[C@@H]3O[C@H]1C[C@H](NC(=O)OCCS*)[C@H](O)[C@H](C)O1; X4 = CCc1c2c(nc3ccc(O)cc13)-c1cc3c(c(=O)n1C2)COC(=O)[C@@]3(CC)OC(=O)OCCS*; Hexanoyl(6-succinimido-3yl) = O=C1CC([*:1])C(=O)N1CCCCCC(=O)[*:2]; Dolaproine = CO[C@@H]([C@@H]1CCCN1)[C@@H](C)C(=O)O; Dil = CC[C@H](C)[C@H](NC)[C@@H](CC(=O)O)OC; PABC = O=C(OCc1ccc(N[*:1])cc1)[*:2]; X1 = C[C@@H](N*)[C@@H](O)c1ccccc1; Cit = NC(=O)NCCC[C@H](N)C(=O)O; Pen = CC(C)(S)[C@H](N)C(=O)O; Tle = CC(C)(C)[C@H](N)C(=O)O; NMeV = CN[C@H](C(=O)O)C(C)C

Legend:
[1] = biological target: T1, human NTSR1 (Homo sapiens, UniProt P30989); assay: radioligand-receptor binding assay, [125I] labeled neurotensin (Eurofins Panlabs)
T1 construct: host or cells: HEK-293 cells (membrane preparations)
T1 sequence (P30989 whole entry): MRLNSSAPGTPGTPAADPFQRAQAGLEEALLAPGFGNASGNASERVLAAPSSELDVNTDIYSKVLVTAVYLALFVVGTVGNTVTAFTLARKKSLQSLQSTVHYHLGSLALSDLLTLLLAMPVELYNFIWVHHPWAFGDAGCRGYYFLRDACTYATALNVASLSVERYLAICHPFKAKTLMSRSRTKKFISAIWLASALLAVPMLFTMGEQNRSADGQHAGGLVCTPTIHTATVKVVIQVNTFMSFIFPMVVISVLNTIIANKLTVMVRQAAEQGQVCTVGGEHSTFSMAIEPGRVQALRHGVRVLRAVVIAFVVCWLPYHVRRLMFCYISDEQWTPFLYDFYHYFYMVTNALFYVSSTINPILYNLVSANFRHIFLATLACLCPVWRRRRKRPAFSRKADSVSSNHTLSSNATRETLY
Method in brief: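 Membranes from HEK-293 cells expressing human NTSR1 incubated 45 min with 0.02 nM [125I]neurotensin and conjugate in 6-point 3-fold dilutions from 100 or 10 nM; bound radioactivity counted after filtration. IC50 by nonlinear regression, converted to Ki via Cheng–Prusoff using historical ligand Kd.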

[2] = system: SW48 (human colon cancer cells); assay: inhibition of SW48 cell proliferation (CellTiter Glo); assay type: cell-based; conditions: 72 hrs, read-out: SW-48 proliferation IC50
Method in brief: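 Cells plated at 5,000/well and grown 24 hrs were exposed to conjugates for 72 hrs at 37° C, 5% CO2, in a ten-point three-fold series starting at 10 μM; vehicle was 0.01% DMSO. Proliferation was read by CellTiter Glo. % inhibition was taken relative to vehicle, with IC50 from four-parameter nonlinear regression.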

[3] = system: HT-29 cells (human colon cancer cells); assay: inhibition of HT29 cell proliferation (Cell Titer Glo 2.0); assay type: cell-based; conditions: NTSR1 scrambled compound; 72 h
Method: Conjugates were assessed in an in vitro assay evaluating inhibition of cell proliferation. HT-29 cells (human colon cancer cells) were seeded in white walled 96-well plates at 10,000 cells per well in 100 μl McCoy's 5a (Invitrogen) media supplemented with 10% Fetal Bovine Serum (Invitrogen). After allowing cells to settle overnight, 5 μl of 20× test article was added to each well in replicate and incubated for 72 h. 72 hours after addition of compound, plates were removed from incubator and allowed to cool to room temperature. 50 μl of Cell Titer Glo 2.0 (Promega) was added to each well, incubated for 15 minutes, and plates were read on Glomax luminometer (Promega) using the Cell Titer Glo protocol. Raw luminometer readings for each plate were transformed by dividing the experimental well into the mean of untreated control wells. This is reported as ratio of untreated, and is plotted with Prism 6 software (Graph Pad) and fitted with a 4-parameter, variable slope curve.
Conjugates are assessed for receptor-dependent cytotoxicity by the difference between an NTSR1-targeting conjugate, and the corresponding conjugate with the same linker moiety and active agent where the NTSR1-targeting domain has been scrambled.

[4] = [125I] neurotensin 0.02 nM, membranes from NTSR1 expressing HEK-293 cells, 45 minute incubation, Cheng and Prusoff, read-out: NTSR1 binding Ki

SMILES | Ki [1, 4] [nM] | IC50 ([2]; NTSR1 targeted compound) [nM] | IC50 ([2]; NTSR1 scrambled compound) [nM] | IC50 [3] [nM] | Ki [1] [nM]
COc1cc2cc(c1Cl)N(C)C(=O)C[C@H](OC(=O)[C@H](C)N(C)C(=O)CCSC1CC(=O)N(CCCNC(=O)CNC(=O)[C@H](CC(C)C)NC(=O)[C@H](Cc3ccccc3)NC(=O)CNC(=O)CCCCCN3C(=O)CC(SCCC(=O)NCCCC[C@H](NC(C)=O)C(=O)N4CCC[C@H]4C(=O)N[C@H](CCCN)C(=O)N[C@@H](CCN)C(=O)N4CCC[C@H]4C(=O)N[C@@H](Cc4ccc(O)cc4)C(=O)N[C@H](C(=O)N[C@@H](CC(C)C)C(=O)O)C(C)(C)C)C3=O)C1=O)[C@]1(C)O[C@H]1[C@H](C)[C@@H]1C[C@@](O)(NC(=O)O1)[C@H](OC)/C=C/C=C(\C)C2 (some centres unmarked) [Compound 34] | 6.07 | 70.2 | – | – | –
COc1cc2cc(c1Cl)N(C)C(=O)C[C@H](OC(=O)[C@H](C)N(C)C(=O)CCSC1CC(=O)N(CCCNC(=O)CNC(=O)[C@H](CC(C)C)NC(=O)[C@H](Cc3ccccc3)NC(=O)CNC(=O)CCCCCN3C(=O)CC(SCCC(=O)NCCCC[C@H](NC(C)=O)C(=O)N4CCC[C@H]4C(=O)N[C@H](CCCN)C(=O)N[C@@H](CCCNC(=N)N)C(=O)N4CCC[C@H]4C(=O)N[C@@H](Cc4ccc(O)cc4)C(=O)N[C@H](C(=O)N[C@@H](CC(C)C)C(=O)O)C(C)(C)C)C3=O)C1=O)[C@]1(C)O[C@H]1[C@H](C)[C@@H]1C[C@@](O)(NC(=O)O1)[C@H](OC)/C=C/C=C(\C)C2 (some centres unmarked) [Compound 35] | 3.75 | 47.3 | – | – | –
COc1cc2cc(c1Cl)N(C)C(=O)C[C@H](OC(=O)[C@H](C)N(C)C(=O)CCSC1CC(=O)N(CCCNC(=O)CNC(=O)[C@H](CC(C)C)NC(=O)[C@H](Cc3ccccc3)NC(=O)CNC(=O)CCCCCN3C(=O)CC(SCCC(=O)NCCCC[C@H](NC(C)=O)C(=O)N4CCC[C@H]4C(=O)N[C@@H](CCCN)C(=O)N[C@@H](CCN)C(=O)N4CCC[C@H]4C(=O)N[C@@H](Cc4ccc(O)cc4)C(=O)N[C@H](C(=O)N[C@@H](CC(C)C)C(=O)O)C(C)(C)C)C3=O)C1=O)[C@]1(C)O[C@H]1[C@H](C)[C@@H]1C[C@@](O)(NC(=O)O1)[C@H](OC)/C=C/C=C(\C)C2 (some centres unmarked) [Compound 36] | 4.8 | 50 | – | – | –
COc1cc2cc(c1Cl)N(C)C(=O)C[C@H](OC(=O)[C@H](C)N(C)C(=O)CCSC1CC(=O)N(CCCNC(=O)CNC(=O)[C@H](CC(C)C)NC(=O)[C@H](Cc3ccccc3)NC(=O)CNC(=O)CCCCCN3C(=O)CC(SCCC(=O)NCCCC[C@H](NC(C)=O)C(=O)N4CCC[C@H]4C(=O)N[C@@H](CCCN)C(=O)N[C@@H](CCCNC(=N)N)C(=O)N4CCC[C@H]4C(=O)N[C@@H](Cc4ccc(O)cc4)C(=O)N[C@H](C(=O)N[C@@H](CC(C)C)C(=O)O)C(C)(C)C)C3=O)C1=O)[C@]1(C)O[C@H]1[C@H](C)[C@@H]1C[C@@](O)(NC(=O)O1)[C@H](OC)/C=C/C=C(\C)C2 (some centres unmarked) [Compound 37] | 2.35 | 51.6 | – | – | –
COc1cccc2c1C(=O)c1c(O)c3c(c(O)c1C2=O)C[C@@](O)(C(=O)CO)C[C@@H]3O[C@H]1C[C@H](NC(=O)OCCSSC(C)(C)[C@H](NC(C)=O)C(=O)N2CCC[C@H]2C(=O)N[C@@H](CCCNC(=N)N)C(=O)N[C@@H](CCCNC(=N)N)C(=O)N2CCC[C@H]2C(=O)N[C@@H](Cc2ccc(O)cc2)C(=O)N[C@H](C(=O)N[C@@H](CC(C)C)C(=O)O)C(C)(C)C)[C@H](O)[C@H](C)O1 [Compound 51] (Ac-[Pen](X3)PRRPY[Tle]L-OH) | 1.34 | 1600 | – | – | –
CC[C@H](C)[C@@H]([C@@H](CC(=O)N1CCC[C@H]1[C@H](OC)[C@@H](C)C(=O)N[C@H](C)[C@@H](O)c1ccccc1)OC)N(C)C(=O)[C@@H](NC(=O)[C@H](C(C)C)N(C)C(=O)OCc1ccc(NC(=O)[C@H](CCCNC(N)=O)NC(=O)[C@@H](NC(=O)CCCCCN2C(=O)CC(SC(C)(C)[C@H](NC(C)=O)C(=O)N3CCC[C@H]3C(=O)N[C@@H](CCCCN)C(=O)N[C@@H](CCCNC(=N)N)C(=O)N3CCC[C@H]3C(=O)N[C@@H](Cc3ccc(O)cc3)C(=O)N[C@H](C(=O)N[C@@H](CC(C)C)C(=O)O)C(C)(C)C)C2=O)C(C)C)cc1)C(C)C (stereo partly drawn) [Compound 59] (I: Ac-[Pen]PKRPY[Tle]L-OH / II: V[Cit][PABC][NMeV]V[Dil][Dolaproine]-X1; linker I:1-II:N via Hexanoyl(6-succinimido-3yl)) | 6.98 | 65 | – | – | –
CCc1c2c(nc3ccc(O)cc13)-c1cc3c(c(=O)n1C2)COC(=O)[C@@]3(CC)OC(=O)OCCSSC(C)(C)[C@H](NC(C)=O)C(=O)N1CCC[C@H]1C(=O)N[C@@H](CCCNC(=N)N)C(=O)N[C@@H](CCCNC(=N)N)C(=O)N1CCC[C@H]1C(=O)N[C@@H](Cc1ccc(O)cc1)C(=O)N[C@H](C(=O)N[C@@H](CC(C)C)C(=O)O)C(C)(C)C [Compound 63] (Ac-[Pen](X4)PRRPY[Tle]L-OH) | 1.89 | 226 | – | – | –
CCc1c2c(nc3ccc(O)cc13)-c1cc3c(c(=O)n1C2)COC(=O)[C@@]3(CC)OC(=O)OCc1ccc(NC(=O)[C@H](CCCNC(N)=O)NC(=O)[C@@H](NC(=O)CCCCCN2C(=O)CC(SC(C)(C)[C@H](NC(C)=O)C(=O)N3CCC[C@H]3C(=O)N[C@@H](CCCNC(=N)N)C(=O)N[C@@H](CCCNC(=N)N)C(=O)N3CCC[C@H]3C(=O)N[C@@H](Cc3ccc(O)cc3)C(=O)N[C@H](C(=O)N[C@@H](CC(C)C)C(=O)O)C(C)(C)C)C2=O)C(C)C)cc1 (some centres unmarked) [Compound 64] | 2.05 | 66 | – | – | –
COc1cc2cc(c1Cl)N(C)C(=O)C[C@H](OC(=O)[C@H](C)N(C)C(=O)CCSSC(C)(C)[C@H](NC(C)=O)C(=O)N1CCC[C@H]1C(=O)N[C@@H](CC(C)C)C(=O)N1CCC[C@H]1C(=O)N[C@@H](CCCNC(=N)N)C(=O)N[C@H](C(=O)N[C@@H](CCCNC(=N)N)C(=O)N[C@@H](Cc1ccc(O)cc1)C(=O)O)C(C)(C)C)[C@]1(C)O[C@H]1[C@H](C)[C@@H]1C[C@@](O)(NC(=O)O1)[C@H](OC)/C=C/C=C(\C)C2 [Compound 77] | > 100 | – | 16.5 | – | –
COc1cc2cc(c1Cl)N(C)C(=O)C[C@H](OC(=O)[C@H](C)N(C)C(=O)CCSSCCC(=O)NCCCC[C@H](NC(C)=O)C(=O)N1CCC[C@H]1C(=O)N[C@@H](CC(C)C)C(=O)N1CCC[C@H]1C(=O)N(C)[C@@H](CCCNC(=N)N)C(=O)N[C@H](C(=O)N[C@@H](CCCNC(=N)N)C(=O)N[C@@H](Cc1ccc(O)cc1)C(=O)O)C(C)(C)C)[C@]1(C)O[C@H]1[C@H](C)[C@@H]1C[C@@](O)(NC(=O)O1)[C@H](OC)/C=C/C=C(\C)C2 [Compound 78] | – | – | 3 | 13.3 | –
COc1cc2cc(c1Cl)N(C)C(=O)C[C@H](OC(=O)[C@H](C)N(C)C(=O)CCSC1CC(=O)N(CCCCCC(=O)NCCCC[C@H](NC(C)=O)C(=O)N3CCC[C@H]3C(=O)N[C@@H](CC(C)C)C(=O)N3CCC[C@H]3C(=O)N(C)[C@@H](CCCNC(=N)N)C(=O)N[C@H](C(=O)N[C@@H](CCCNC(=N)N)C(=O)N[C@@H](Cc3ccc(O)cc3)C(=O)O)C(C)(C)C)C1=O)[C@]1(C)O[C@H]1[C@H](C)[C@@H]1C[C@@](O)(NC(=O)O1)[C@H](OC)/C=C/C=C(\C)C2 (some centres unmarked) [Compound 80] | – | – | 81 | 116 | –
COc1cc2cc(c1Cl)N(C)C(=O)C[C@H](OC(=O)[C@H](C)N(C)C(=O)CCSC1CC(=O)N(CCCNC(=O)CNC(=O)[C@H](CC(C)C)NC(=O)[C@H](Cc3ccccc3)NC(=O)CNC(=O)CCCCCN3C(=O)CC(SC(C)(C)[C@H](NC(C)=O)C(=O)N4CCC[C@H]4C(=O)N[C@@H](CC(C)C)C(=O)N4CCC[C@H]4C(=O)N[C@@H](CCCNC(=N)N)C(=O)N[C@H](C(=O)N[C@@H](CCCNC(=N)N)C(=O)N[C@@H](Cc4ccc(O)cc4)C(=O)O)C(C)(C)C)C3=O)C1=O)[C@]1(C)O[C@H]1[C@H](C)[C@@H]1C[C@@](O)(NC(=O)O1)[C@H](OC)/C=C/C=C(\C)C2 (some centres unmarked) [Compound 81] | – | – | 70 | – | > 100
CC[C@H](C)[C@@H]([C@@H](CC(=O)N1CCC[C@H]1[C@H](OC)[C@@H](C)C(=O)N[C@H](C)[C@@H](O)c1ccccc1)OC)N(C)C(=O)[C@@H](NC(=O)[C@H](C(C)C)N(C)C(=O)OCc1ccc(NC(=O)[C@H](CCCNC(N)=O)NC(=O)[C@@H](NC(=O)CCCCCN2C(=O)CC(SC(C)(C)[C@H](NC(C)=O)C(=O)N3CCC[C@H]3C(=O)N[C@@H](CC(C)C)C(=O)N3CCC[C@H]3C(=O)N[C@@H](CCCNC(=N)N)C(=O)N[C@H](C(=O)N[C@@H](CCCNC(=N)N)C(=O)N[C@@H](Cc3ccc(O)cc3)C(=O)O)C(C)(C)C)C2=O)C(C)C)cc1)C(C)C (some centres unmarked) [Compound 90] | – | – | 60 | 97 | –
